According to US11987570B1, “10-(2-hydroxyethyl)-9-(2-hydroxypyridin-3-yl)-3,4,6,7,9,10-hexahydroacridine-1,8(2H,5H)-dione as an antimicrobial compound” (KING FAISAL UNIVERSITY, priority 2023, dated 2024):

Tests used:
Assay type in all cases: cell-based
Conditions in all cases: after 10, 20, 40 and 60 minutes at all dilutions 1:100, 1:200, 1:400, 1:800
Pseudomonas aeruginosa = assay: Antimicrobial screening by agar dilution, Pseudomonas aeruginosa
Description: (§1) The antibacterial properties of the synthesized compound (10-(2-hydroxyethyl)-9-(2-hydroxypyridin-3-yl)-3,4,6,7,9,10-hexahydroacridine-1,8(2H,5H)-dione) were studied by the method of agar dilution. Test solutions of each compound was prepared in concentration of 1% using dimethylformamide as a solvent then they are diluted in physiological solution to obtain the final experimental dilutions 1:100, 1:200, 1:400, 1:800. The effect of these substances are compared with furacillin in a controllable study. The testing microbes used were gram positive bacteria Staphylococcus aureus, gram negative bacteria Pseudomonas aeruginosa and Escherichia coli and Candida albicans fungus. The experiments used for this survey were meat-pentonlu agar (EPA) for cultivation of bacteria and Saburo environment for the fungus. Each experiment used 1 mL of test solution on each plate […]. Two drops of emulsified with microbes feel were added. All experimental samples were taken from the agar after 10, 20, 40, 60 minutes in the environment on the basis of Patrk planted. The bacteria were cultivated at a temperature of 37° C. for 1 day and the mushroom was kept in a thermostat for 2 hours at a temperature of 28° C. Then results were checked.

Escherichia coli = assay: Antimicrobial screening by agar dilution, Escherichia coli
Description: as §1

Candida albicans = assay: Antimicrobial screening by agar dilution, Candida albicans
Description: as §1

Staphylococcus aureus = assay: Antimicrobial screening by agar dilution, Staphylococcus aureus
Description: as §1

Measured: inhibition activity

O=C1CCCC2=C1C(c1cccnc1O)C1=C(CCCC1=O)N2CCO [10-(2-hydroxyethyl)-9-(2-hydroxypyridin-3-yl)-3,4,6,7,9,10-hexahydroacridine-1,8(2H,5H)-dione]
highest inhibition activity: all assays above
